Reference: US20250223301A1, “KINASE INHIBITORS, PREPARATION METHODS AND USES THEREOF” (InventisBio Co., Ltd., priority 2022, published 2025)

Columns and labels:
[1] = test system: Jurkat cells; assay: Jurkat IL-2 assay; format: cell-based; details: Homo sapiens, anti-CD3/CD28 stimulation overnight, IL-2 level
Protocol: Jurkat cells (ATCC) were cultured in RPMI-1640 medium supplemented with 10% FBS. In a 96-well plate, −250,000 cells in 130 uL were added to each assay well. Ten microliter compound solution (5 uM to 2.3 nM, 8 points with 3-fold dilution) were added to cells in each well and incubated for 60 minutes at 37° C. Then 10 uL anti-CD3/CD28 antibody (Catalog #10991, Stemcell) were added and incubated overnight at 37° C. After the incubation, 16 uL supernatants were transferred into a new 384-well white assay plate for cytokine analysis. IL-2 was quantified using Human IL-2 kit (Catalog #62HIL02PEG, Cisbio) as described in the manufacturer manual.
(§1) X is log of compound concentration, Y is the IL-2 concentration, increasing as X increases.

[2] = test system: PBMC; assay: Human PBMC IL-2 assay; format: cell-based; details: anti-CD3/CD28 stimulation overnight, IL-2 level
Protocol: PBMC (frozen) obtained from health donor were thawed in RPMI-1640 medium with 10% FBS and incubated for 4 h at 37° C. In a 96-well plate, −200,000 PBMC cells in 160 uL were added to each assay well. Ten microliter compound solution (10 uM to 0.6 nM, 8 points with 4-fold dilution) were added to cells in each well and incubated for 60 minutes at 37° C. Then 30 uL anti-CD3/CD28 antibody (Catalog #10991, Stemcell) were added to cells and incubated overnight at 37° C. After the incubation, 16 uL supernatants were transferred into a new 384-well white assay plate for cytokine analysis. IL-2 level was quantified using Human IL-2 kit (Catalog #62HIL02PEG, Cisbio) as described in the manufacturer manual.
as §1

Compound | EC50 [1] | EC50 [2]
CC[C@@H]1CN2c3c(c(=O)n(C)c4ccc(C#N)nc34)OC[C@@H]2CN1[C@@H](CC)c1ccc(C(F)(F)F)cc1Cl (stereo in doubt) [Compound 207] | 150 nM | 284 nM
CC[C@H]1CN([C@H](CC)c2c(Cl)cccc2Cl)[C@H](CC)CN1c1nc2nncn2c2ccc(C#N)nc12 (stereo in doubt) [Compound 209] | 1010 nM | 1380 nM
CC[C@@H]1CN2c3c(c(=O)n(C)c4ccc(C#N)nc34)OC[C@@H]2CN1[C@@H](CC)c1ccc(OC(F)(F)F)cc1 (stereo in doubt) [Compound 212] | 11 nM | 39 nM
C[C@@H]1CN2c3c(c(=O)n(C)c4ccc(C#N)nc34)OC[C@@H]2CN1[C@H](C)c1ccc(C(F)(F)F)cc1 (stereo in doubt) [Compound 222] | 144 nM | 154 nM
CC[C@@H]1CN2c3c(c(=O)n(CC)c4ccc(C#N)nc34)OC[C@@H]2CN1[C@@H](CC)c1ccc(C(F)(F)F)cc1 (stereo in doubt) [Compound 228] | 87 nM | 227 nM
CC[C@@H]1CN2c3c(c(=O)n(C)c4ccc(C#N)nc34)OC[C@@H]2CN1[C@@H](CC)c1ccc(OC)cc1F (stereo in doubt) [Compound 232] | 47 nM | 19 nM
CC[C@@H]1CN2c3c(c(=O)n(C)c4ccc(C#N)nc34)OC[C@@H]2CN1[C@@H](CC)c1ccc(C(F)(F)F)cc1C (stereo in doubt) [Compound 233] | 287 nM | 361 nM
CC[C@@H]1CN2c3c(c(=O)n(C)c4ccc(C#N)nc34)OC[C@@H]2CN1[C@H](CO)c1ccc(C(F)(F)F)cc1 (stereo in doubt) [Compound 236] | 98 nM | 583 nM
CC[C@@H](c1ccc(F)c(Cl)c1)N1C[C@H]2COc3c(c4nc(C#N)ccc4n(C)c3=O)N2C[C@H]1C (stereo in doubt) [Compound 238] | 189 nM | 78 nM
CC[C@@H]1CN2c3c(c(=O)n(C)c4ccc(C#N)nc34)OC[C@@H]2CN1[C@H](CC)c1c(Cl)cccc1Cl (stereo in doubt) [Compound 239] | 687 nM | 3420 nM
CC[C@@H]1CN2c3c(c(=O)n(C)c4ccc(C#N)nc34)OC[C@@H]2CN1[C@@H](CC)c1c(Cl)cccc1Cl (stereo in doubt) [Compound 240] | 242 nM | 109 nM
CC[C@@H]1CN2c3c(c(=O)n(C)c4ccc(C#N)nc34)OC[C@@H]2CN1[C@H](CC)c1ccc(Cl)cc1 (stereo in doubt) [Compound 243] | 473 nM | 212 nM
CC[C@@H]1CN2c3c(c(=O)n(C)c4ccc(C#N)nc34)OC[C@@H]2CN1[C@@H](CC)c1ccc(Cl)cc1 (stereo in doubt) [Compound 244] | 63 nM | 11 nM
CC[C@@H]1CN2c3c(c(=O)n(C)c4ccc(C#N)nc34)OC[C@@H]2CN1[C@H](CC)c1ccc(C(F)(F)F)c(Cl)c1 (stereo in doubt) [Compound 245] | 189 nM | 314 nM
C[C@@H]1CN2c3c(c(=O)n(C)c4ccc(C#N)nc34)OC[C@@H]2CN1[C@@H](C)c1ccc(Cl)c(Cl)c1 (stereo in doubt) [Compound 257] | 132 nM | 119 nM
C[C@@H]1CN2c3c(c(=O)n(C)c4ccc(C#N)nc34)OC[C@@H]2CN1[C@H](C)c1ccc(Cl)c(Cl)c1 (stereo in doubt) [Compound 258] | 758 nM | 1100 nM
C[C@@H]1CN2c3c(c(=O)n(C)c4ccc(C#N)nc34)OC[C@@H]2CN1[C@H](C)c1ccc(F)c(Cl)c1 (stereo in doubt) [Compound 259] | 624 nM | 1880 nM
C[C@@H]1CN2c3c(c(=O)n(C)c4ccc(C#N)nc34)OC[C@@H]2CN1[C@@H](C)c1ccc(F)c(Cl)c1 (stereo in doubt) [Compound 260] | 69 nM | 89 nM
C[C@@H]1CN2c3c(c(=O)n(C)c4ccc(C#N)nc34)OC[C@@H]2CN1[C@H](C)c1ccc(Cl)cc1 (stereo in doubt) [Compound 270] | 506 nM | 616 nM
C[C@@H]1CN2c3c(c(=O)n(C)c4ccc(C#N)nc34)OC[C@@H]2CN1[C@@H](C)c1ccc(Cl)cc1 (stereo in doubt) [Compound 271] | 79 nM | 57 nM
C[C@@H]1CN2c3c(c(=O)n(C)c4ccc(C#N)nc34)OC[C@@H]2CN1[C@@H](C)c1ccc(Cl)cc1F (stereo in doubt) [Compound 275] | 51 nM | 23 nM

Compound | EC50 [1] | EC50 [2]
CC[C@@H](c1ccc(Cl)c(F)c1)N1C[C@H]2COc3c(c4nc(C#N)ccc4n(C)c3=O)N2C[C@H]1C (stereo in doubt) [Compound 281] | 118 nM | 49 nM
CC[C@@H]1CN2c3c(c(=O)n(C)c4ccc(C#N)nc34)OC[C@@H]2CN1[C@@H](CC)c1ccc(C(F)F)cc1 (stereo in doubt) [Compound 291] | 10 nM | 11 nM
CC[C@@H]1CN2c3c(c(=O)n(C)c4ccc(C#N)nc34)OC[C@@H]2CN1[C@@H](CC)c1ccc(Cl)cc1F (stereo in doubt) [Compound 295] | 8 nM | 10 nM
CC[C@@H]1CN2c3c(c(=O)n(C)c4ccc(C#N)nc34)OC[C@@H]2CN1[C@H](CC)c1ccc(Cl)c(F)c1 (stereo in doubt) [Compound 296] | 91 nM | 68 nM
CC[C@@H]1CN2c3c(c(=O)n(C)c4ccc(C#N)nc34)OC[C@@H]2CN1[C@@H](CC)c1ccc(Cl)c(F)c1 (stereo in doubt) [Compound 297] | 34 nM | 12 nM
C[C@@H]1CN2c3c(c(=O)n(C)c4ccc(C#N)nc34)OC[C@@H]2CN1[C@H](C)c1ccc(C(C)(F)F)cc1 (stereo in doubt) [Compound 303] | 153 nM | 105 nM
C[C@@H]1CN2c3c(c(=O)n(C)c4ccc(C#N)nc34)OC[C@@H]2CN1[C@@H](C)c1ccc(C(C)(F)F)cc1 (stereo in doubt) [Compound 304] | 34 nM | 24 nM
CC[C@@H](c1ccc(C(F)(F)F)cc1F)N1C[C@H]2COc3c(c4nc(C#N)ccc4n(C)c3=O)N2C[C@H]1C (stereo in doubt) [Compound 306] | 36 nM | 30 nM
CC[C@@H](c1ccc(Cl)cc1F)N1C[C@H]2COc3c(c4nc(C#N)ccc4n(C)c3=O)N2C[C@H]1C (stereo in doubt) [Compound 308] | 9 nM | 18 nM
CCC[C@@H](c1ccc(Cl)cc1)N1C[C@H]2COc3c(c4nc(C#N)ccc4n(C)c3=O)N2C[C@H]1CC (stereo in doubt) [Compound 311] | 54 nM | 1 nM
CCC[C@H](c1ccc(Cl)cc1)N1C[C@H]2COc3c(c4nc(C#N)ccc4n(C)c3=O)N2C[C@H]1CC (stereo in doubt) [Compound 312] | 218 nM | 49 nM
C[C@@H]1CN2c3c(c(=O)n(C)c4ccc(C#N)nc34)OC[C@@H]2CN1[C@H](C)c1ccc(C(F)F)cc1 (stereo in doubt) [Compound 314] | 77 nM | 22 nM
CC[C@H]1CN([C@H](C)c2ccc(C(F)(F)F)cc2)[C@H](C)CN1c1nc2nncn2c2ccc(C#N)nc12 (stereo in doubt) [Compound 315] | 90 nM | 63 nM
CC[C@H]1CN([C@@H](C)c2ccc(C(F)(F)F)cc2)[C@H](C)CN1c1nc2nncn2c2ccc(C#N)nc12 (stereo in doubt) [Compound 316] | 707 nM | 742 nM
CC[C@H](c1ccc(Cl)c(C(F)(F)F)c1)N1C[C@H]2COc3c(c4nc(C#N)ccc4n(C)c3=O)N2C[C@H]1C (stereo in doubt) [Compound 317] | 21 nM | 105 nM
CC[C@@H](c1ccc(Cl)c(C(F)(F)F)c1)N1C[C@H]2COc3c(c4nc(C#N)ccc4n(C)c3=O)N2C[C@H]1C (stereo in doubt) [Compound 318] | 359 nM | 349 nM
CC[C@@H]1CN2c3c(c(=O)n(C)c4ccc(C#N)nc34)OC[C@@H]2CN1[C@@H](CC)c1ccc(C(F)(F)F)c(F)c1 (stereo in doubt) [Compound 319] | 519 nM | 285 nM
CC[C@@H]1CN2c3c(c(=O)n(C)c4ccc(C#N)nc34)OC[C@@H]2CN1[C@H](CC)c1ccc(C(F)(F)F)c(F)c1 (stereo in doubt) [Compound 320] | 42 nM | 56 nM
CC[C@H](c1ccc(Cl)c(Cl)c1)N1C[C@H]2COc3c(c4nc(C#N)ccc4n(C)c3=O)N2C[C@H]1C (stereo in doubt) [Compound 321] | 223 nM | 540 nM
CC[C@H](c1ccc(C(F)(F)F)c(Cl)c1)N1C[C@H]2COc3c(c4nc(C#N)ccc4n(C)c3=O)N2C[C@H]1C (stereo in doubt) [Compound 323] | 364 nM | 474 nM
CC[C@@H](c1ccc(C(F)(F)F)c(Cl)c1)N1C[C@H]2COc3c(c4nc(C#N)ccc4n(C)c3=O)N2C[C@H]1C (stereo in doubt) [Compound 324] | 95 nM | 49 nM
